Source: paper PMC6133161, “Thiazoles with cyclopropyl fragment as antifungal, anticonvulsant, and anti-Toxoplasma gondii agents: synthesis, toxicity evaluation, and molecular docking study” (Medicinal Chemistry Research, 2018)
In brackets after ≈: the same amount, converted by molar mass. Read-outs that look alike come from different tables or passages of the source.

Experiments:
[1] = test system: 6-Hz psychomotor seizures; test: 6-Hz test; assay type: in vivo, mouse; conditions: mice; for responders at 100 mg/kg: 100 mg/kg ip
Procedure: For in vivo tests that assessed anticonvulsant properties of the test compounds 3a-3j adult male Albino Swiss (CD-1) mice weighing between 18 and 22 g were used. The animals were housed in groups of ten mice per cage at room temperature of 22 ± 2 °C, under light/dark (12:12) cycle. The animals had free access to food and tap water before the experiments. The ambient temperature of the experimental room and humidity (50 ± 10%) were kept consistent throughout all the tests. For behavioral experiments the animals were selected randomly. Each experimental group consisted of 4-8 animals/dose. The experiments were performed between 9 AM and 2 PM. Immediately after the in vivo assay the animals were euthanized by cervical dislocation. All procedures were approved by the Local Ethics Committee of the Jagiellonian University in Krakow (34/2018, 1.02.2018)) and the treatment of animals was in full accordance with ethical standards laid down in respective Polish and EU regulations (Directive No. 86/609/EEC). For in vivo tests the compounds 3a-3j were prepared in 1% Tween 80 solution (POCH, Poland) and they were administered by the intraperitoneal route. Control mice received 1% Tween 80. Pentylenetetrazole (PTZ), pilocarpine hydrochloride and scopolamine butylbromide were provided by Sigma Aldrich (Poland). For the tests they were prepared in 0.9% saline (Polfa Kutno, Poland). PTZ and pilocarpine were administered 60 min after the test compound or vehicle. To assess anticonvulsant properties of the test compounds anticonvulsant screening was conducted. Four assays were used: PTZ, maximal electroshock seizure (MES), 6-Hz and pilocarpine tests. In these assays the dose of 100 mg/kg was chosen as a starting dose. If it turned out to be effective, a lower dose (30 mg/kg) was also tested. This test was performed according to (Barton et al. [2001]). It is an alternative electroshock paradigm that involves low-frequency (6 Hz), long-duration (3 s) electrical stimulation. Corneal stimulation (0.2 ms-duration monopolar rectangular pulses at 6 Hz for 3 s) was delivered by a constant-current device. During electrical stimulation mice were manually restrained and released into the observation cage immediately after current application. At the time of drug administration a drop of 0.5% tetracaine ([…] sterile solution, […] Pharmaceuticals Inc., USA) was applied into the eyes of all animals. Prior to the placement of corneal electrodes, a drop of 0.9% saline was applied on the eyes. In this model seizures manifest in 'stunned' posture associated with rearing, forelimb automatic movements and clonus, twitching of the vibrissae and Straub-tail. At the end of the seizure episode the animals resume their normal exploratory behavior. In this test protection against a seizure episode is considered as the end point and animals are considered to be protected if they resume their normal exploratory behavior within 10 s after electrical stimulation.

[2] = test system: Candida albicans ATCC 2091; test: Broth microdilution MIC/MFC, reference strain; assay type: cell-based; conditions: C. albicans ATCC 2091
Description: (§1) The examined compounds 3a–3j were screened in vitro for antibacterial and antifungal activities using the broth microdilution method according to European Committee on Antimicrobial Susceptibility Testing (EUCAST) (EUCAST [2003]) and Clinical and Laboratory Standards Institute guidelines (CLSI [2012]) against reference strains of microorganisms from American Type Culture Collection (ATCC), including fungi belonging to yeasts (Candida albicans ATCC 2091, Candida albicans ATCC 10231, Candida parapsilosis ATCC 22019 and Candida krusei ATCC 14243).
(§2) In the study of antifungal activity of the compounds 3a–3j, 15 clinical strains of different species of yeasts from Candida species, namely C. albicans, C. dubliniensis C. famata, C. inconspicua, C. krusei, C. tropicalis, C. glabrata, C. lambica, C. kefyr, C. lusitaniae, C. parapsilosis, C. guilliermondii, C. lusitaniae, C. pulcherrima and C. sake were also used. These fungi were isolated by the author (from Department of Pharmaceutical Microbiology of Medical University in Lublin, Poland) from different clinical materials, e.g., from upper respiratory tract of hospitalized patients including cancer patients (i.e., with non-small cell lung cancer or hematological malignancies). Some patients were after pre-operative or post-operative chemotherapy (treated with etoposide or cis-platin given in doses according to the standard procedures), patients with chronic hepatitis C (undergoing peginterferon and ribavirin therapy or without antiviral therapy), patients with diabetes, elderly people, aged of 65 years old or older, staying in close population, such as a care centre and people staying outside the home care. The Ethical Committee of the Medical University of Lublin approved the study protocol (No. KE-0254/75/2011). The isolates were identified by standard diagnostic methods—biochemical microtest, e.g., API 20C AUX, ID 32C, API Candida (bioMérieux) on the basis of assimilation of various substrates. All the used microbial cultures were first subcultured on nutrient agar or Sabouraud agar for bacteria and fungi, respectively. The RPMI 1640 with MOPS (for fungi) were inoculated with the suspensions of fungal species. Microbial suspensions were prepared in sterile saline (0.85% NaCl) with an optical density of 0.5 McFarland standard scale (Wiegand et al. [2008]). Samples containing examined compounds were dissolved in dimethyl sulfoxide (DMSO). Furthermore, fungal suspensions were put onto Petri dishes with solid media containing 2 mg/ml of the tested compounds followed incubation under appropriate conditions. The inhibition of microbial growth was judged by comparison with a control culture prepared without any sample tested. Nystatin (Sigma) was used as a reference antifungal compound. Subsequently MIC minimal inhibitory concentration (MIC) of the compounds was examined by the microdilution broth method, using their two-fold dilutions in RPMI 1640 broth with MOPS prepared in 96-well polystyrene plates. Final concentrations of the compounds ranged from 1000 to 0.0038 µg/ml. Microbial suspensions were prepared in sterile saline with an optical density of 0.5 McFarland standard. Next fungal suspension was added per each well containing broth and various concentrations of the examined compounds. After incubation, the MIC was assessed spectrophotometric as the lowest concentration of the samples showing complete fungal growth inhibition. Appropriate DMSO, growth and sterile controls were carried out. The medium with no tested substances was used as a control (Wiegand et al. [2008]). The minimal fungicidal concentration (MFC) are defined as the lowest concentration of the compounds that is required to kill a particular fungal species. MFC was determined by removing the culture using for MIC determinations from each well and spotting onto appropriate agar medium. The plates were incubated. The lowest compounds concentration with no visible growth observed was assessed as a fungicidal concentration. […]

[3] = test system: Candida krusei ATCC 14243; test: Broth microdilution MIC/MFC, reference strain; assay type: cell-based; conditions: C. krusei ATCC 14243
Description: as §1, §2

[4] = test system: Candida albicans ATCC 10231; test: Broth microdilution MIC/MFC, reference strain; assay type: cell-based; conditions: C. albicans ATCC 10231
Description: as §1, §2

[5] = test system: Candida parapsilosis ATCC 22019; test: Broth microdilution MIC/MFC, reference strain; assay type: cell-based; conditions: C. parapsilosis ATCC 22019
Description: as §1, §2

[6] = Mus musculus, read-out: X/Y number of mice protected (X) per number of mice tested (Y) (converted)
[7] = Candida albicans, ATCC2091, read-out: MFC
[8] = Candida albicans, ATCC2091, read-out: MIC
[9] = Pichia kudriavzevii, ATCC14243, read-out: MFC
[10] = Pichia kudriavzevii, ATCC14243, read-out: MIC
[11] = Candida albicans, ATCC10231, read-out: MFC
[12] = Candida albicans, ATCC10231, read-out: MIC
[13] = Lodderomyces parapsilosis, ATCC22019, read-out: MFC
[14] = Lodderomyces parapsilosis, ATCC22019, read-out: MIC

Structure (SMILES)	MIC [2, 8] [µg/mL]	MIC [3, 10] [µg/mL]	MIC [4, 12] [µg/mL]	MIC [5, 14] [µg/mL]	responders at 100 mg/kg [1, 6] [%]	MFC [2, 7] [µg/mL]	MFC [3, 9] [µg/mL]	MFC [4, 11] [µg/mL]	MFC [5, 13] [µg/mL]	also measured
Clc1ccc(-c2csc(N/N=C/C3CC3)n2)cc1 [Compound 3c, (E)-4-(4-Chlorophenyl)-2-(2-(cyclopropylmethylene)hydrazinyl)thiazole]	0.12 (≈ 0.432 µM)	0.12 (≈ 0.432 µM)	0.12 (≈ 0.432 µM)	0.48 (≈ 1.73 µM)	25	0.48 (≈ 1.73 µM)	0.98 (≈ 3.53 µM)	0.24 (≈ 0.864 µM)	1.95 (≈ 7.02 µM)	–
FC(F)(F)c1ccc(-c2csc(N/N=C/C3CC3)n2)cc1 [Compound 3e, (E)-2-(2-(Cyclopropylmethylene)hydrazinyl)-4-(4-(trifluoromethyl)phenyl)thiazole]	–	–	–	–	25	–	–	–	–	–
COc1ccc(-c2csc(N/N=C/C3CC3)n2)cc1 [Compound 3f, (E)-2-(2-(Cyclopropylmethylene)hydrazinyl)-4-(4-methoxyphenyl)thiazole]	0.24 (≈ 0.878 µM)	0.48 (≈ 1.76 µM)	0.015 (≈ 0.0549 µM)	0.48 (≈ 1.76 µM)	50	1.95 (≈ 7.13 µM)	0.98 (≈ 3.59 µM)	0.03 (≈ 0.11 µM)	3.91 (≈ 14.3 µM)	–
O=[N+]([O-])c1ccc(-c2csc(N/N=C/C3CC3)n2)cc1 [Compound 3j, (E)-2-(2-(Cyclopropylmethylene)hydrazinyl)-4-(4-nitrophenyl)thiazole]	3.91 (≈ 13.6 µM)	0.98 (≈ 3.4 µM)	0.48 (≈ 1.66 µM)	3.91 (≈ 13.6 µM)	0	7.81 (≈ 27.1 µM)	3.91 (≈ 13.6 µM)	1.95 (≈ 6.76 µM)	31.2 (≈ 108 µM)	–
C[C@@H]1[C@H](O)[C@@H](C)/C=C/C=C/CC/C=C/C=C/C=C/C=C/C(O[C@H]2O[C@H](C)[C@@H](O)[C@H](N)[C@@H]2O)CC2O[C@](O)(CC(O)C(O)CCC(O)CC(O)CC(O)CC(=O)O[C@H]1C)CC(O)C2C(=O)O (stereo partly drawn) [Nystatin, reference compound]	–	–	–	–	–	–	–	–	–	MFC [2]: 0.24 µg/mL (≈ 0.259 µM); MFC/MIC [2]: 1; MIC [2]: 0.24 µg/mL (≈ 0.259 µM); MFC [3]: 0.24 µg/mL (≈ 0.259 µM); MFC/MIC [3]: 1; MIC [3]: 0.24 µg/mL (≈ 0.259 µM); MFC [4]: 0.48 µg/mL (≈ 0.518 µM); MFC/MIC [4]: 1; MIC [4]: 0.48 µg/mL (≈ 0.518 µM); MFC [5]: 0.48 µg/mL (≈ 0.518 µM); MFC/MIC [5]: 2; MIC [5]: 0.24 µg/mL (≈ 0.259 µM)

More lines, in order of falling MIC [2, 8], values ahead:

MIC [2, 8] [µg/mL]	MIC [3, 10] [µg/mL]	MIC [4, 12] [µg/mL]	MIC [5, 14] [µg/mL]	Structure (SMILES)	responders at 100 mg/kg [1, 6] [%]	MFC [2, 7] [µg/mL]	MFC [3, 9] [µg/mL]	MFC [4, 11] [µg/mL]	MFC [5, 13] [µg/mL]	also measured
1.95 (≈ 7.46 µM)	3.91 (≈ 15 µM)	1.95 (≈ 7.46 µM)	1.95 (≈ 7.46 µM)	Fc1ccc(-c2csc(N/N=C/C3CC3)n2)cc1 [Compound 3a, (E)-2-(2-(Cyclopropylmethylene)hydrazinyl)-4-(4-fluorophenyl)thiazole]	25	3.91 (≈ 15 µM)	15.6 (≈ 59.8 µM)	15.6 (≈ 59.8 µM)	3.91 (≈ 15 µM)	–
1.95 (≈ 6.98 µM)	7.81 (≈ 28 µM)	0.48 (≈ 1.72 µM)	3.91 (≈ 14 µM)	Fc1ccc(-c2csc(N/N=C/C3CC3)n2)c(F)c1 [Compound 3g, (E)-2-(2-(Cyclopropylmethylene)hydrazinyl)-4-(2,4-difluorophenyl)thiazole]	25	1.95 (≈ 6.98 µM)	31.2 (≈ 112 µM)	0.98 (≈ 3.51 µM)	3.91 (≈ 14 µM)	–
1.95 (≈ 7.27 µM)	0.98 (≈ 3.65 µM)	0.48 (≈ 1.79 µM)	3.91 (≈ 14.6 µM)	N#Cc1ccc(-c2csc(N/N=C/C3CC3)n2)cc1 [Compound 3h, (E)-4-(2-(2-(Cyclopropylmethylene)hydrazinyl)thiazol-4-yl)benzonitrile]	50	3.91 (≈ 14.6 µM)	1.95 (≈ 7.27 µM)	1.95 (≈ 7.27 µM)	3.91 (≈ 14.6 µM)	–
0.98 (≈ 3.45 µM)	0.48 (≈ 1.69 µM)	0.24 (≈ 0.844 µM)	0.98 (≈ 3.45 µM)	[N-]=[N+]=Nc1ccc(-c2csc(N/N=C/C3CC3)n2)cc1 [Compound 3i, (E)-4-(4-Azidophenyl)-2-(2-(cyclopropylmethylene)hydrazinyl)thiazole]	75	3.91 (≈ 13.8 µM)	1.95 (≈ 6.86 µM)	1.95 (≈ 6.86 µM)	7.81 (≈ 27.5 µM)	responders at 30 mg/kg ([1]; Mus musculus, 30 mg/kg ip, read-out: X/Y number of mice protected (X) per number of mice tested (Y) (converted)): 25%; animals protected from seizures ([1]; 100 mg/kg): 75%
0.12 (≈ 0.372 µM)	0.24 (≈ 0.745 µM)	0.06 (≈ 0.186 µM)	0.48 (≈ 1.49 µM)	Brc1ccc(-c2csc(N/N=C/C3CC3)n2)cc1 [Compound 3b, (E)-4-(4-Bromophenyl)-2-(2-(cyclopropylmethylene)hydrazinyl)thiazole]	0	0.98 (≈ 3.04 µM)	0.98 (≈ 3.04 µM)	0.24 (≈ 0.745 µM)	1.95 (≈ 6.05 µM)	–
0.12 (≈ 0.466 µM)	0.06 (≈ 0.233 µM)	0.06 (≈ 0.233 µM)	0.24 (≈ 0.933 µM)	Cc1ccc(-c2csc(N/N=C/C3CC3)n2)cc1 [Compound 3d, (E)-2-(2-(Cyclopropylmethylene)hydrazinyl)-4-p-tolylthiazole]	50	1.95 (≈ 7.58 µM)	0.48 (≈ 1.87 µM)	0.24 (≈ 0.933 µM)	0.98 (≈ 3.81 µM)	–
